Tested on: Digitaria sanguinalis
Assay: Post-emergence herbicidal activity against Digitaria sanguinalis (hairy crabgrass) seedlings assessed as plant growth inhibition at 75 g ai/ha measured 15 days after compound treatment under greenhouse conditions
Type: functional
Conditions: 360 h, read-out: GI

Compound | inhibition of growth at 75 g/ha [%]
CCOC(=O)CSc1nc2cc(-n3nc(C)n(C(F)F)c3=O)c(Br)cc2s1 | 60
Cc1nn(-c2cc3nc(SC(C)C(=O)O)sc3cc2F)c(=O)n1C(F)F (stereo not drawn) | < 50

Tested on: Chenopodium album
Assay: Post-emergence herbicidal activity against Chenopodium album seedlings assessed as plant growth inhibition at 150 g ai/ha measured 15 days after compound treatment under greenhouse conditions
Type: functional
Conditions: 360 h, read-out: GI

Compound | inhibition of growth at 150 g/ha [%]
CCOC(=O)CSc1nc2cc(-n3nc(C)n(C(F)F)c3=O)c(Br)cc2s1 | ≥ 90
Cc1nn(-c2cc3nc(SC(C)C(=O)O)sc3cc2F)c(=O)n1C(F)F (stereo not drawn) | ≥ 90

Tested on: Echinochloa crus-galli
Assay: Post emergence herbicidal activity against Echinochloa crus-galli (barnyard grass) seedlings assessed as plant growth inhibition at 37.5 g ai/ha measured 15 days after compound treatment under greenhouse conditions
Type: functional
Conditions: 360 h, read-out: GI

Compound | inhibition of growth at 37.5 g/ha [%]
CCOC(=O)CSc1nc2cc(-n3nc(C)n(C(F)F)c3=O)c(Br)cc2s1 | 50
Cc1nn(-c2cc3nc(SC(C)C(=O)O)sc3cc2F)c(=O)n1C(F)F (stereo not drawn) | 60

Tested on: Digitaria sanguinalis
Assay: Post-emergence herbicidal activity against Digitaria sanguinalis (hairy crabgrass) seedlings assessed as plant growth inhibition at 150 g ai/ha measured 15 days after compound treatment under greenhouse conditions
Type: functional
Conditions: 360 h, read-out: GI

Compound | inhibition of growth at 150 g/ha [%]
CCOC(=O)CSc1nc2cc(-n3nc(C)n(C(F)F)c3=O)c(Br)cc2s1 | 80
Cc1nn(-c2cc3nc(SC(C)C(=O)O)sc3cc2F)c(=O)n1C(F)F (stereo not drawn) | ≥ 90

Tested on: Echinochloa crus-galli
Assay: Post emergence herbicidal activity against Echinochloa crus-galli (barnyard grass) seedlings assessed as plant growth inhibition at 150 g ai/ha measured 15 days after compound treatment under greenhouse conditions
Type: functional
Conditions: 360 h, read-out: GI

Compound | inhibition of growth at 150 g/ha [%]
CCOC(=O)CSc1nc2cc(-n3nc(C)n(C(F)F)c3=O)c(Br)cc2s1 | 50
Cc1nn(-c2cc3nc(SC(C)C(=O)O)sc3cc2F)c(=O)n1C(F)F (stereo not drawn) | ≥ 90

Tested on: Brassica juncea
Assay: Post-emergence herbicidal activity against Brassica juncea seedlings assessed as plant growth inhibition at 37.5 g ai/ha measured 15 days after compound treatment under greenhouse conditions
Type: functional
Conditions: 360 h, read-out: GI

Compound | inhibition of growth at 37.5 g/ha [%]
CCOC(=O)CSc1nc2cc(-n3nc(C)n(C(F)F)c3=O)c(Br)cc2s1 | 80
Cc1nn(-c2cc3nc(SC(C)C(=O)O)sc3cc2F)c(=O)n1C(F)F (stereo not drawn) | ≥ 90

Tested on: Setaria faberi
Assay: Post-emergence herbicidal activity against Setaria faberi (Giant Foxtail) seedlings assessed as plant growth inhibition at 150 g ai/ha measured 15 days after compound treatment under greenhouse conditions
Type: functional
Conditions: 360 h, read-out: GI

Compound | inhibition of growth at 150 g/ha [%]
CCOC(=O)CSc1nc2cc(-n3nc(C)n(C(F)F)c3=O)c(Br)cc2s1 | 80
Cc1nn(-c2cc3nc(SC(C)C(=O)O)sc3cc2F)c(=O)n1C(F)F (stereo not drawn) | ≥ 90

Tested on: Brassica juncea
Assay: Post-emergence herbicidal activity against Brassica juncea seedlings assessed as plant growth inhibition at 150 g ai/ha measured 15 days after compound treatment under greenhouse conditions
Type: functional
Conditions: 360 h, read-out: GI

Compound | inhibition of growth at 150 g/ha [%]
CCOC(=O)CSc1nc2cc(-n3nc(C)n(C(F)F)c3=O)c(Br)cc2s1 | ≥ 90
Cc1nn(-c2cc3nc(SC(C)C(=O)O)sc3cc2F)c(=O)n1C(F)F (stereo not drawn) | ≥ 90

Tested on: Digitaria sanguinalis
Assay: Post-emergence herbicidal activity against Digitaria sanguinalis (hairy crabgrass) seedlings assessed as plant growth inhibition at 37.5 g ai/ha measured 15 days after compound treatment under greenhouse conditions
Type: functional
Conditions: 360 h, read-out: GI

Compound | inhibition of growth at 37.5 g/ha [%]
CCOC(=O)CSc1nc2cc(-n3nc(C)n(C(F)F)c3=O)c(Br)cc2s1 | 50
Cc1nn(-c2cc3nc(SC(C)C(=O)O)sc3cc2F)c(=O)n1C(F)F (stereo not drawn) | < 50

Tested on: Setaria faberi
Assay: Post-emergence herbicidal activity against Setaria faberi (Giant Foxtail) seedlings assessed as plant growth inhibition at 75 g ai/ha measured 15 days after compound treatment under greenhouse conditions
Type: functional
Conditions: 360 h, read-out: GI

Compound | inhibition of growth at 75 g/ha [%]
CCOC(=O)CSc1nc2cc(-n3nc(C)n(C(F)F)c3=O)c(Br)cc2s1 | 60
Cc1nn(-c2cc3nc(SC(C)C(=O)O)sc3cc2F)c(=O)n1C(F)F (stereo not drawn) | 60

Target: T1, Protoporphyrinogen oxidase, chloroplastic (Nicotiana tabacum, UniProt O24163)
T1 sequence (O24163 whole entry): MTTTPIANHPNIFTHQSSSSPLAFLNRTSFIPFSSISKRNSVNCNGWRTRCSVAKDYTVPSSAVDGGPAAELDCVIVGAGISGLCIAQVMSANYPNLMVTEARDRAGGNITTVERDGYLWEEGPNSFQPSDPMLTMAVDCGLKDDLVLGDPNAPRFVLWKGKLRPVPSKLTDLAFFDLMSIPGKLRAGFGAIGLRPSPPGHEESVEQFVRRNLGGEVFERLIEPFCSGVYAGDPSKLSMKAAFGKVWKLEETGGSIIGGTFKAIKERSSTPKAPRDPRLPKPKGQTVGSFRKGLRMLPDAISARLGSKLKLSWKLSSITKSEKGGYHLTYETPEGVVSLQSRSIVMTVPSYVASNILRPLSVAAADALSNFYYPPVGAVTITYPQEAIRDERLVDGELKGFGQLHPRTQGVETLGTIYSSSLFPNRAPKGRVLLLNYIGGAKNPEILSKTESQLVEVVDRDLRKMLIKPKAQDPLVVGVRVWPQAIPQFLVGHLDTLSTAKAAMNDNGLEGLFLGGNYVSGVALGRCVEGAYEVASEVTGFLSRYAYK
Assay: Inhibition of Nicotiana tabacum (tobacco) recombinant PPO assessed as protoporphyrin IX formation at room temperature by fluorimetric assay
Conditions: not given

Ki [µM] | Compound
8 | CCOC(=O)CSc1nc2cc(-n3nc(C)n(C(F)F)c3=O)c(Br)cc2s1
1.21 | Cc1nn(-c2cc3nc(SC(C)C(=O)O)sc3cc2F)c(=O)n1C(F)F (stereo not drawn)

Tested on: Amaranthus retroflexus
Assay: Post emergence herbicidal activity against Amaranthus retroflexus seedlings assessed as plant growth inhibition at 37.5 g ai/ha measured 15 days after compound treatment under greenhouse conditions
Type: functional
Conditions: 360 h, read-out: GI

Compound | inhibition of growth at 37.5 g/ha [%]
CCOC(=O)CSc1nc2cc(-n3nc(C)n(C(F)F)c3=O)c(Br)cc2s1 | ≥ 90
Cc1nn(-c2cc3nc(SC(C)C(=O)O)sc3cc2F)c(=O)n1C(F)F (stereo not drawn) | ≥ 90

Tested on: Amaranthus retroflexus
Assay: Post emergence herbicidal activity against Amaranthus retroflexus seedlings assessed as plant growth inhibition at 75 g ai/ha measured 15 days after compound treatment under greenhouse conditions
Type: functional
Conditions: 360 h, read-out: GI

Compound | inhibition of growth at 75 g/ha [%]
CCOC(=O)CSc1nc2cc(-n3nc(C)n(C(F)F)c3=O)c(Br)cc2s1 | ≥ 90
Cc1nn(-c2cc3nc(SC(C)C(=O)O)sc3cc2F)c(=O)n1C(F)F (stereo not drawn) | ≥ 90

Tested on: Brassica juncea
Assay: Post-emergence herbicidal activity against Brassica juncea seedlings assessed as plant growth inhibition at 75 g ai/ha measured 15 days after compound treatment under greenhouse conditions
Type: functional
Conditions: 360 h, read-out: GI

Compound | inhibition of growth at 75 g/ha [%]
CCOC(=O)CSc1nc2cc(-n3nc(C)n(C(F)F)c3=O)c(Br)cc2s1 | 80
Cc1nn(-c2cc3nc(SC(C)C(=O)O)sc3cc2F)c(=O)n1C(F)F (stereo not drawn) | ≥ 90

Tested on: Setaria faberi
Assay: Post-emergence herbicidal activity against Setaria faberi (Giant Foxtail) seedlings assessed as plant growth inhibition at 37.5 g ai/ha measured 15 days after compound treatment under greenhouse conditions
Type: functional
Conditions: 360 h, read-out: GI

Compound | inhibition of growth at 37.5 g/ha [%]
CCOC(=O)CSc1nc2cc(-n3nc(C)n(C(F)F)c3=O)c(Br)cc2s1 | 50
Cc1nn(-c2cc3nc(SC(C)C(=O)O)sc3cc2F)c(=O)n1C(F)F (stereo not drawn) | 60

Tested on: Chenopodium album
Assay: Post-emergence herbicidal activity against Chenopodium album seedlings assessed as plant growth inhibition at 37.5 g ai/ha measured 15 days after compound treatment under greenhouse conditions
Type: functional
Conditions: 360 h, read-out: GI

Compound | inhibition of growth at 37.5 g/ha [%]
CCOC(=O)CSc1nc2cc(-n3nc(C)n(C(F)F)c3=O)c(Br)cc2s1 | ≥ 90
Cc1nn(-c2cc3nc(SC(C)C(=O)O)sc3cc2F)c(=O)n1C(F)F (stereo not drawn) | 50

Tested on: Echinochloa crus-galli
Assay: Post emergence herbicidal activity against Echinochloa crus-galli (barnyard grass) seedlings assessed as plant growth inhibition at 75 g ai/ha measured 15 days after compound treatment under greenhouse conditions
Type: functional
Conditions: 360 h, read-out: GI

Compound | inhibition of growth at 75 g/ha [%]
CCOC(=O)CSc1nc2cc(-n3nc(C)n(C(F)F)c3=O)c(Br)cc2s1 | 60
Cc1nn(-c2cc3nc(SC(C)C(=O)O)sc3cc2F)c(=O)n1C(F)F (stereo not drawn) | 60

Tested on: Chenopodium album
Assay: Post-emergence herbicidal activity against Chenopodium album seedlings assessed as plant growth inhibition at 75 g ai/ha measured 15 days after compound treatment under greenhouse conditions
Type: functional
Conditions: 360 h, read-out: GI

Compound | inhibition of growth at 75 g/ha [%]
CCOC(=O)CSc1nc2cc(-n3nc(C)n(C(F)F)c3=O)c(Br)cc2s1 | ≥ 90
Cc1nn(-c2cc3nc(SC(C)C(=O)O)sc3cc2F)c(=O)n1C(F)F (stereo not drawn) | ≥ 90

Tested on: Amaranthus retroflexus
Assay: Post emergence herbicidal activity against Amaranthus retroflexus seedlings assessed as plant growth inhibition at 150 g ai/ha measured 15 days after compound treatment under greenhouse conditions
Type: functional
Conditions: 360 h, read-out: GI

Compound | inhibition of growth at 150 g/ha [%]
CCOC(=O)CSc1nc2cc(-n3nc(C)n(C(F)F)c3=O)c(Br)cc2s1 | ≥ 90
Cc1nn(-c2cc3nc(SC(C)C(=O)O)sc3cc2F)c(=O)n1C(F)F (stereo not drawn) | ≥ 90

— ChEMBL document CHEMBL3046000, “Design and synthesis of 1-(benzothiazol-5-yl)-1H-1,2,4-triazol-5-ones as protoporphyrinogen oxidase inhibitors” (Bioorg Med Chem, 2013)
